From patent publication EP0341154A2, “Analogues of L-fucose, process for their preparation, their application for the preparation of glycals, anthracycline derivatives of the glycals and the use of the anthracyclines as medicaments” (priority 1988, dated 1989)

Legend:
HT29 = assay: MTT reduction proliferation test, 72 h incubation; format: cell-based; details: HT 29 cells
Protocol: (§1) Des cellules tumorales L1210, A549 et HT29, à une concentration de 5.10³/ml dans un milieu RPMI, sont incubées dans des plaques de microtitration contenant 96 puits, pendant 72 heures (37°C, 5 % CO₂, 95 % d'humidité relative) avec différentes concentrations de chacun des glycosides (anthracyclines) conformes à l'invention.
(§2) Les témoins consistent en cellules tumorales exposées à un milieu de culture. Quatre puits sont préparés pour chaque concentration en glycoside et pour le témoin. Après 65 heures, 50 µl de MTT (2,5 mg/ml dans du PBS) sont ajoutés.
(§3) Le MTT sera réduit, en présence de cellules vivantes en un colorant formazan rouge insoluble. Après 7 à 24 heures d'incubation supplémentaire, le surnageant est enlevé. Le colorant formazan est solubilisé par l'addition de 100 µl de DMSO dans chaque puits, suivie d'une agitation douce.
(§4) L'extinction est mesurée pour chaque puits, à 492 nm (photomètre Multiscan 340 CC Fa. Flow).
(§5) Les résultats sont exprimés comme le rapport de l'extinction après incubation avec les glycosides sur l'extinction obtenue avec les témoins. Le coefficient de variation est inférieur à 15 %.

L1210 [1] = assay: MTT reduction proliferation test, 72 h incubation; format: cell-based; details: L1210 cells
Protocol: as §1, §2, §3, §4, §5

A549 = assay: MTT reduction proliferation test, 72 h incubation; format: cell-based; details: A 549 cells
Protocol: as §1, §2, §3, §4, §5

L1210 [2] = assay: In vivo antitumour effect on L1210 ascites leukemia in mice; design: species or system souris BDF1; details: for L1210 T/C %: 3 x 1.p./ 1.p. Q3D, BDF1 mice
Protocol: Un liquide d'ascite est prélevé dans les conditions aseptiques chez des souris DBA2 (femelle, 18 - 20 g) le septième jours après l'implantation.
L'ascite est lavée trois fois avec du PBS, comptée et finalement diluée dans du PBS, de manière à obtenir 10⁶ cellules/0,2 ml.
10⁶ cellules dans 0,2 ml de P BS sont injectées dans le peritoine de souris DBA2 pour la propagation de la lignée cellulaire.
10⁶ cellules dans 0,2 ml de PBS sont injectés intrapériotonéalement à des souris BDF1 (femelle 18 - 20 g), 6 animaux/group sont utilisés pour chaque concentration de substance et pour le contrôle.
• a) les animaux sont pesés le premier jour et le cinquième jour après l'administration du médicament. Une perte de poids supérieure à 20 % le cinquième jour est utilisée comme indicateur d'effet toxique du produit. • b) à la fin de l'expérience, (mort de tous les animaux ou soixantième jour de l'essai), le temps moyen de survie des animaux, dans tous les groupes ayant plus de 65 % de survivants au cinquième jour, est évalué selon des procédures standard.
Les animaux survivants au soixantième jour sont considérés comme des survivants de longue durée (LTS : Long Time Survivors) et sont répertoriés séparément.
A partir du temps de survie moyen des groupes traités (MSTT) et des groupes contrôle (MSTC), l'effet antitumoral (T/C) est évalué en fonction de la formule suivante : [formula]
Les valeurs T/C de plus de 125 % sont considé-rées comme des indicateurs d'un effet antitumoral significatif.

[3] = Acute toxicity in mice (Litchfield Wilcoxon); format: in vivo, souris NMRI; details: 3 x i.p., NMRI mice, deaths counted after two weeks
From the text: La substance à tester est injectée à des souris NMRI selon le protocole tel que précisé dans le Tableau IV, ci-après.
Après deux semaines, le nombre total d'animaux décédés dans chaque groupe est calculé et les DL₅₀ sont évaluées en utilisant la méthode de Litchfield Wilcoxon.

SMILES	CI₅₀ TEST AU MTT HT 29 (HT29)	CI₅₀ TEST AU MTT L1210 (L1210 [1])	CI₅₀ TEST AU MTT A 549 (A549)	L1210 T/C % (L1210 [2]; 10.00 mg/kg/Inj.) [%]	L1210 T/C % (L1210 [2]; 13.30 mg/kg/Inj.) [%]	L1210 T/C % (L1210 [2]; 17.70 mg/kg/Inj.) [%]	Morts toxiques (L1210 [2]; 17.70 mg/kg/Inj., 6 animals/group)	DL₅₀ [3]
CC[C@@H]1O[C@@H](O[C@H]2C[C@](O)(CC)[C@H](O[C@@H]3C[C@H](OC(C)=O)[C@H](OC(C)=O)[C@H](CC)O3)c3c(O)c4c(c(O)c32)C(=O)c2c(O)cccc2C4=O)C[C@H](OC(C)=O)[C@@H]1OC(C)=O [22 b, Di-O-(di-O-acétyl-3′,4′tridésoxy-2′,6′,7′-α-L-thréoheptopyrannosyl)-7,10 β-Rhodomycinone]	> 1 µg/mL	> 1 µg/mL	> 1 µg/mL					
CCCCCC1OC(OC2CC(O)(CC)C(OC3CC(OC(C)=O)C(OC(C)=O)C(CCCCC)O3)c3c(O)c4c(c(O)c32)C(=O)c2c(O)cccc2C4=O)CC(OC(C)=O)C1OC(C)=O [22 c, di-O-(di-O-acétyl-3′,4′ hexadésoxy-2′,6′,7′,8′,9′, 10′-α-L-thréodécapyrannosyl)-7,10 β-Rhodomycinone]	> 1 µg/mL	> 1 µg/mL	> 1 µg/mL					
CCCCC1OC(OC2CC(O)(C(C)=O)Cc3c(O)c4c(c(O)c32)C(=O)c2c(OC)cccc2C4=O)CC(OC(C)=O)C1OC(C)=O (centres unmarked) [20 c, acétoxy-3′ O-acétyl-4′ désamino-3′ propyl-6′ daunorubicine]	> 1 µg/mL	> 1 µg/mL	> 1 µg/mL					
CCCCC[C@@H]1O[C@@H](O[C@H]2C[C@](O)(CC)[C@H](O)c3c(O)c4c(c(O)c32)C(=O)c2c(O)cccc2C4=O)C[C@H](OC(C)=O)[C@@H]1OC(C)=O [21 c, O-(di-O-acétyl-3′,4′hexadésoxy-2′,6′,7′,8′,9′,10′-α-L-thréodécapyrannosyl)-7 β-Rhodomycinone]	> 1 µg/mL	> 1 µg/mL	> 1 µg/mL					
CC[C@@H]1O[C@@H](O[C@H]2C[C@](O)(CC)[C@H](O)c3c(O)c4c(c(O)c32)C(=O)c2c(O)cccc2C4=O)C[C@H](OC(C)=O)[C@@H]1OC(C)=O [21 b, O-(di-O-acétyl-3′-4′ tridésoxy-2′,6′,7′-α-L-thréo-heptopyrannosyl)-7 β-Rhodomycinone]	> 1 µg/mL	0,51 µg/ml	0,46 µg/ml					
CCC1(O)CC(OC2CC(OC(C)=O)C(OC(C)=O)C(C)O2)c2c(O)c3c(c(O)c2C1O)C(=O)c1cccc(O)c1C3=O [21 a, O-(di-O-acétyl-3′,4′ didésoxy-2′,6′-α-L-thréo-hexopyrannosyl)-7 β-Rhodomycinone]	0,038 µg/ml	0,03 µg/ml	0,086 µg/ml	134	152	146	1/6	> 21.3
